Assay results taken from article PMC4770311, “Discovery and Characterization of GSK2801, a Selective Chemical Probe for the Bromodomains BAZ2A and BAZ2B” (Journal of Medicinal Chemistry, 2015).

Tests used:
BAZ2A = biological target: T1, BAZ2A (Homo sapiens, UniProt Q9UIF9); test: AlphaScreen assay BAZ2A; format: binding; conditions: average of three replicates ± SEM
T1 construct: Recombinant BAZ2A and BAZ2B bromodomains were expressed in; made in house; host or cells: E. coli
T1 sequence (Q9UIF9 1793-1897 limits assumed): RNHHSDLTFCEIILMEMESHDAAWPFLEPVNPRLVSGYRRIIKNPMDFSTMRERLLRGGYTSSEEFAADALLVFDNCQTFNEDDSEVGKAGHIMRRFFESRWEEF
Protocol: AlphaScreen: AlphaScreen was performed as described previously 10, with minor modifications from the manufacturers protocol (PerkinElmer, USA). Briefly, all reagents were diluted in the recommended buffer (50 mM HEPES, 100 mM NaCl, 0.1% BSA; pH = 7.4) supplemented with 0.05% CHAPS and allowed to equilibrate to room temperature prior to […]
Plates were sealed and incubated at room temperature for 30 min. 4 μL of streptavidin-coated donor beads (10ug/mL final) and 4 μL of nickel chelate acceptor beads (10 μg/ml final) were then added under low light conditions. Plates were foil sealed to protect from light, incubated at room temperature for 60 min and read on a PHERAstar FS plate reader (BMG Labtech, Germany) using an AlphaScreen 680 excitation/570 emission filter set.
Fragments were dissolved in ethylene glycol to overcome sensitivity of the bromodomain assay to DMSO and allow compounds to be screened at mM concentrations. IC50 […]
measurements were taken over a 12 point 1:2 serial dilution of compound. IC50s were calculated in GraphPad Prism 5 (GraphPad Software, USA). […]

BRD2 = test system: BRD2; set-up: method as in PMID 21804994, PMID 22136404; conditions: reported activity; read-out: TR-FRET assay: BRD2; cited from earlier work
BRD4 = test system: BRD4; set-up: method as in PMID 21804994, PMID 22136404; conditions: reported activity; read-out: TR-FRET assay: BRD4; cited from earlier work

In the case of CC(=O)c1cc(-c2ccccn2)c2ccccn12 [Compound 1], the IC50 (BAZ2A) is listed as 1500 ± 60 nM, the IC50 (BRD2) is listed as 2000 nM and the IC50 (BRD4) is listed as 2000 nM.
